A word on the Km: it is the concentration of substrate that gives half-maximal velocity.

These results are taken from publication PMC8790579, “Activity-Based Protein Profiling for the Identification of Novel Carbohydrate-Active Enzymes Involved in Xylan Degradation in the Hyperthermophilic Euryarchaeon Thermococcus sp. Strain 2319x1E” (Frontiers in Microbiology, 2022).

One experiment relates to T1, EGIDFPOO_00532.
T1 construct: N-terminal 6xHis-tag, pET-28b(+) NheI/XhoI, E. coli Rosetta; primers encode N-term MLVFPDSFL and C-term KYGLPEL
Briefly: nitrophenol release, absorbance. The format is biochemical, Thermococcus sp. 2319x1E. To be noted: pH 8.0, 100°C; refolding buffer with 2 M urea, 10% sucrose.

The subject of the next experiment is T2, EGIDFPOO_00674.
T2 construct: C-terminal 6xHis-tag, pET-28b(+) NcoI/EcoRI, E. coli Rosetta; Ni-IDA purified; primers encode N-term MGYQKFGYHFHA and C-term NGASIGPGF before HHHHHH; GH57 domain 52-300, predicted catalytic E153/D253
Briefly: nitrophenol release, absorbance. The format is biochemical, Thermococcus sp. 2319x1E. The settings on record: pH 8.0 (50 mM Tris-HCl), 100°C.

Regarding `O=[N+]([O-])c1ccccc1O[C@@H]1O[C@H](CO)[C@H](O)[C@H](O)[C@H]1O` [ONPG], the Km in the experiment on EGIDFPOO_00532 came out at 6.23 mM.
`CC(=O)Oc1ccc([N+](=O)[O-])cc1` [PNPA]: in the experiment with EGIDFPOO_00674, the Km was determined as 2.57 mM.
As to `O=[N+]([O-])c1ccc(O[C@@H]2O[C@H](CO)[C@@H](O)[C@H](O)[C@H]2O)cc1` [PNPG], the Km with EGIDFPOO_00532 came out at 0.18 mM.
Same read-out and setting: under `O=[N+]([O-])c1ccc(O[C@@H]2OC[C@@H](O)[C@H](O)[C@H]2O)cc1` [PNPX] stands 4.38 mM.
